Experiment [1] relates to NRP-154 cells. In words: Apoptosis / cell death (DNA laddering, morphology), NRP-154 cells. It is filed as cell-based, rat. The note with it: 24 hours; okadaic acid 30 nM, staurosporine 2 nM. As for the experimental part:
(§1) 2×10^5 M-NRP1 cells or NRP-154 cells were plated in 6-well dishes. After 24 hours, 2 ml DMEM/F12 containing 15 mM HEPES, 1% calf serum, and 0.1 μM dexamethasone were added to the plates. The cells were cultured at 37° C. for 24 hours and then detached by trypsinization.
(§2) Internucleosomal DNA ladders were detected with a modification (described below) of TACS apoptotic DNA ladder kit (Trevigen, Githersburg, Md.). Briefly, the detached cells were centrifuged at 600×g to form cell pellets. The cell pellets were then resuspended in 25 μl PBS and lysed by the addition of 25 μl of lysis buffer. DNA was purified from the mixture as directed by Trevigen.
The nicked ends of the DNA were ^32P-labeled by incubating 1 μg of DNA with 2.5 units of Klenow fragment of DNA Poll in the presence of 0.5 μCi of (α-^32P) dCTP (3 Ci/mmol, Dupont NEN, Boston, Mass.) for 30 min at room temperature in a 10 μl reaction volume containing 5 mM MgCl2 and 10 mM Tris-HCl (pH 7.5). One third of the labeled DNA was electrophoresed through 1.8% agarose-1×TAE at 70 V for 2 hours. […]
(§3) NRP-154 and M-NRP1 cells were treated with a control (i.e., the identical solution without the agent of interest) or with 10 ng/ml TGF-β, okadaic acid (30 nM) or staurosporine (2 nM) for 24 hours. Apoptosis was determined by DNA laddering, essentially as described in Example VA, above.

Experiment [2] deals with M-NRP1 cells. In words: Apoptosis (DNA laddering, morphology), M-NRP1 cells. The class given is cell-based, rat. The note with it: 24 hours; 10 ng/ml TGF-β, okadaic acid 30 nM, staurosporine 2 nM. As for the experimental part:
as §1, §2
The nicked ends of the DNA were ^32P-labeled by incubating 1 μg of DNA with 2.5 units of Klenow fragment of DNA Poll in the presence of 0.5 μCi of (α-^32P) dCTP (3 Ci/mmol, Dupont NEN, Boston, Mass.) for 30 min at room temperature in a 10 μl reaction volume containing 5 mM MgCl2 and 10 mM Tris-HCl (pH 7.5). One third of the labeled DNA was electrophoresed through 1.8% agarose-1×TAE at 70 V for 2 hours. Gels were dried and exposed to X-Omat AR (Kodak, Rochester, N.Y.) for about 1 hour.
Staurosporine and okadaic acid (Upstate Biotechnology Incorporated, Lake Placid, N.Y.) were dissolved in dimethyl sulfoxide (DMSO) and diluted to a final concentration of 2 nM and […], respectively, in 0.01% DMSO.
as §3

In experiment [3] the test system is NRP-154 cells. Put plainly: TUNEL assay, NRP-154 cells. It is filed as cell-based, rat. The note with it: 10 ng/ml TGF-β, 24 hours. As for the experimental part:
(§4) TUNEL assays were performed using the TACS In Situ Apoptosis Detection Kit (Trevigen). Briefly, NRP-154 and M-NRP1 cells were plated at 8×10^4 cells/ml in a 96 well plate and allowed to attach overnight. Cells were then treated with either 10 ng/ml TGF-β (R&D Systems, Inc., Minneapolis, Minn.), or control (i.e., the identical solution without TGF-β) for 24 hours, fixed with formaldehyde and analyzed for stained nuclei according to the manufacturer's instructions.

Experiment [4] relates to NRP-154 cells. As to conditions: 48-72 hours exposure to 10 ng/ml TGF-β; cited from earlier work.
Experiment [5] concerns M-NRP1 cells. Put plainly: TUNEL assay, M-NRP1 cells. The class given is cell-based, rat. As to conditions: 10 ng/ml TGF-β, 24 hours. As for the experimental part: as §4
Experiment [6] has as its system cyclin A promoter construct (pCAL2) in NRP-154 cells. Put plainly: Cyclin A promoter construct pCAL2-luc luciferase assay, NRP-154 cells. It is filed as cell-based, rat. The note with it: 24 hours of treatment with 10 ng/ml TGF-β. The method, then:
(§5) M-NRP1 and NRP-154 cells were cultured in 10% fetal bovine serum as described by Chaudhary et al., (1998) J. Biol. Chem. 273: 17708-17712) and exposed to 10 ng/ml TGF-β1 for 24 hours.
(§6) M-NRP1 cells were transiently transfected with pCal-luc (a pCAL2 reporter construct described by Keeton et al., (1991) J. Biol. Chem. 266: 23048-23052) using the Lipofectamine (Gibco BRL Life Technologies, Gaithersburg, Md.) transfection reagent.
(§7) Activity of the transiently transfected cyclin A promoter construct, pCal2-luc, was assessed by a luciferase assay and measured using a luminometer. The basal activity (e.g., without TGF-β treatment) of pCAL2 was similar in MNRP-1 and NRP-154 cells.

For experiment [7], the system named is cyclin A promoter construct (pCAL2) in M-NRP1 cells. Put plainly: Cyclin A promoter construct pCAL2-luc luciferase assay, M-NRP1 cells. The class given is cell-based, rat. The note with it: 24 hours of exposure to 10 ng/ml TGF-β. The method, then: as §5, §6, §7
In experiment [8] the test system is NRP-154 cells. In words: Thymidine incorporation assay, NRP-154 cells. It is filed as cell-based, rat. The note with it: 24 hr treatment with 10 ng/ml TGF-β1. As for the experimental part:
(§8) M-NRP1 and NRP-154 cells were plated at 1×10^5 cells per well in 24 well plates and allowed to attach overnight. Incorporation of (^3H)-thymidine was measured by adding radioactivity for 3 hours, 24 hours after addition of control or 10 ng/ml TGF-β1. Plates were counted on a Packard Top Count. Parallel plates (e.g., those treated in an identical manner) were harvested by trypinization for counting in a Coulter Counter.

Experiment [9] deals with caspase 3 in NRP-154 cells. In words: Caspase 3 fluorescent activity assay, NRP-154 cells. It is filed as cell-based, rat. As to conditions: 10 ng/ml TGF-β 24 hours. The method, then: Cells were seeded to 50% confluence in six-well plates in media containing 10% fetal calf serum overnight. Following 24 hours after transfection, cells media was changed to contain 1% fetal calf serum with or without 10 ng/ml TGF-β for additional 24 hours. Cells were treated with caspase 3 aldehyde inhibitor (Ac-DEVD-CHO) supplied with caspase 3 fluorescent activity kit according to the manufacturers' protocols (Pharmingen, San-Diego, Calif.). Results were read using FL-600 microplate fluorescence reader (Bio-Tek).

Experiment [10] deals with M-NRP1 cells. In words: Thymidine incorporation assay, M-NRP1 cells. As to conditions: 24 hr treatment with 10 ng/ml TGF-β1. It is filed as cell-based, rat. As for the experimental part:
as §8
In general terms: Incorporation of labelled thymidine or its analogues reports DNA synthesis.

A further experiment has as its system COS cells. Put plainly: TUNEL assay of transfected COS cells. The class given is cell-based, monkey. The note with it: COS cells transfected with control vector, 10 ng/ml TGF-β for 24 hours. As for the experimental part:
COS cells were cultured as previously described (Section E, above). […] When these cells are transfected with ARTS and treatment with TGF-β they are induced to cell death.
COS cells were then transfected with control vector or wildtype ARTS, essentially as described above, and treated with 10 ng/ml TGF-β for 24 hours.
The apoptotic response of COS cells to TGF-β was assessed by a TUNEL assay ([…], now Roche, Indianapolis, Ind.) following the manufacturer's instructions.
COS cells were cultured and transfected, as described above, with equal concentrations of either pcDNA3 control vector, ARTS or M-ARTS-pcDNA3 using the Lipofectamine transfection reagent (Gibco BRL Life Technologies, Gaithersburg, Md.). The cells were treated with 1 o ng/ml TGF-β for 24 hours.
Apoptosis was examined in a TUNEL assay (Boehringer-Mannheim), according to the manufacturer's instructions.

For `CN[C@@H]1C[C@H]2O[C@@](C)([C@@H]1OC)n1c3ccccc3c3c4c(c5c6ccccc6n2c5c31)C(=O)NC4` [staurosporine], the apoptosis entry in the experiment with NRP-154 cells [1] is “morphologically evident shrinkage, nuclear fragmentation, and loss of attachment characteristic of apoptosis”; in the experiment with M-NRP1 cells [2] it was “remain sensitive to apoptosis”.

Consider `C=C1[C@@H](O)[C@@H]2O[C@]3(CC[C@H](/C=C/[C@@H](C)[C@@H]4CC(C)=C[C@@]5(O[C@H](C[C@@](C)(O)C(=O)O)CC[C@H]5O)O4)O3)CC[C@H]2O[C@@H]1[C@@H](O)C[C@H](C)[C@H]1O[C@@]2(CCCCO2)CC[C@H]1C` [okadaic acid], for which the apoptosis entry in the experiment with NRP-154 cells [1] is “morphologically evident shrinkage, nuclear fragmentation, and loss of attachment characteristic of apoptosis”; with M-NRP1 cells [2], “remain sensitive to apoptosis”.

In the case of “TGF-β: recombinant human TGF-β1 (R&D Systems), transforming growth factor-β”, the “TUNEL staining of nuclei” value in the experiment with NRP-154 cells [3] is recorded as “strong TUNEL staining of apoptotic nuclei”; in the experiment with M-NRP1 cells [5], “most nuclei from M-NRP1 cells remained intact”. Besides, in the experiment with NRP-154 cells [4], the cell death result is on record as “over 80%”. Moreover, in experiment [6], the pCAL2 activity entry is reported as “strong decrease”. In [7], the “activity of the pCal-luc reporter” value was “unaffected”. For the same compound, the apoptosis entry in the experiment with M-NRP1 cells [2] is reported as “resistant to apoptosis”. Further, the “(3H)-thymidine uptake inhibited” value in the experiment on NRP-154 cells [8] is recorded as “greater than 80%”. Moreover, in [9], the “caspase 3 activity” value is listed as “caspase 3 was activated”. Besides, the “(3H)-thymidine uptake stimulated” value in the experiment on M-NRP1 cells [10] is 14%. The “apoptosis (TUNEL)” value with COS cells is recorded as “did not undergo apoptosis”.

Source of the values: patent US20030124571A1, “Novel human septin and uses therefor” (The Government of the United States of America, priority 2000, published 2003).
